Measurements published in patent publication US4997926A, “Deaminase-stable anti-retroviral 2-halo-2',3'-dideoxy” (Scripps Clinic and Research Foundation, priority 1987, dated 1991).
Like-named read-outs stand apart in the source and are kept apart here.

What was measured:
[1] = biological target: T1, calf intestinal adenosine deaminase (Bos taurus, UniProt P56658); test: Metabolism by adenosine deaminase (spectrophotometric deamination, Lineweaver-Burke); type: biochemical
T1 sequence (P56658 1-363): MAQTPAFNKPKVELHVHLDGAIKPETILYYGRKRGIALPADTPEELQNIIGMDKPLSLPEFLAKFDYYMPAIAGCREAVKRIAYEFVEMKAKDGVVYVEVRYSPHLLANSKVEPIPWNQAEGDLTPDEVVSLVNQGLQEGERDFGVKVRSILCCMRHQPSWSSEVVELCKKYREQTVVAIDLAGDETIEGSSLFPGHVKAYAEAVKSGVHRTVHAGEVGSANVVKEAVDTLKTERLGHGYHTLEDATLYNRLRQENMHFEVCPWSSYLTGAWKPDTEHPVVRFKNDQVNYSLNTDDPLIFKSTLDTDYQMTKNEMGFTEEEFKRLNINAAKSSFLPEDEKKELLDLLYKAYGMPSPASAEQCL
Method: ^1 The indicated nucleosides at concentrations from 5-200 uM were
incubated at 18-20° C. with 0.01 EU/ml calf intestinal adenosine
deaminase in 10 mM sodium phosphate, pH 7.5. Deamination was monitored
spectrophotometrically at 265 nanometers (nm) and 250 nm, as described
The individual nucleosides, at concentrations from 5-200 uM in 10 mM sodium phosphate, pH 7.5, were incubated at 18-20 degrees C. with 0.01 EU/ml calf intestinal adenosine deaminase. The change in the optical density at 265 nm and 250 nm was monitored spectrophotometrically.

[2] = tested on: deoxycytidine kinase deficient CEM T cells (clone AraC-8D); type: in vitro ADME, human
Method: ^1 Human CEM T cells, or variants deficient in either deoxycytidine
kinase, or deoxycytidine kinase plus adenosine kinase, were incubated at
density of 5 × 10^7 cells/ml in medium containing 3 uM [8^3
H2-chloro-2',3dideoxyadenosine. After 4 hours, the nucleotides in the
methanolsoluble extracts were determined after separation by HPLC, as
described in the Materials and Methods.
The human T lymphoblastoid cell line, CCRF-CEM, and mutants deficient in either deoxycytidine kinase (clone AraC-8D), or deoxycytidine kinase plus adenosine kinase (clone AraC-8DM10-5) were obtained and propagated as described previously [Foley et al., (1965) Cancer, 18:552-529 and Hershfield et al., (1982) J. Biol. Chem., 257:6380-6386]. For metabolic studies, the cells were cultured in RPMI 1640 medium supplemented with 2 mM L-glutamine and 10 percent fetal bovine serum at a density of 2×10^7 cells/ml in the presence of radiolabelled dideoxynucleosides, as indicated earlier. Some cultures were pre-incubatedfor 30 minutes either with 5 uM 2'-deoxycoformycin or 50 uM coformycin. After 4 hours of incubation the cells were harvested by centrifugation.
The cell pellets were washed with Hank's balanced salt solution at 4 degrees C., and extracted with 1 ml 60 percent methanol/water at -20 degrees C. for 10 minutes. Initial studies included 2',3'-dideoxyadenosine5'-triphosphate as an internal recovery marker. The nucleotides were fractionated by high performance liquid chromatography on an Whatman Partisil-10 SAX column, applying a gradient of zero to 100 percent buffer B in buffer A. Buffer A was 7 mM potassium phosphate pH 3.4. Buffer B was 0.5 M potassium phosphate, pH 3.4, one M KCl. The flow rate was 1.5 ml/minute, 1 minute fractions were collected. Buffer A was used alone for the first ten fractions after which elution with Buffer B began and was continued through fraction thirty, after which the eluting buffer was completely Buffer B. The nucleoside was eluted by about fraction six. The monophosphate eluted between about fractions fifteen and eighteen, the diphosphate between about fractions twenty-seven and thirty-two, and the triphosphate eluted between about fractions fifty-one and about sixty-five.

[3] = tested on: HIV (strain LAV) in MT-2 cells; test: HIV-induced syncytia formation and cytopathic effect in MT-2 T lymphoblasts; type: cell-based
From the text: The anti-HIV activities of the 2-halo-2',3'-dideoxyadenosine derivatives were first assayed in human MT-2 T lymphoblasts, as this system readily permitted a differentiation between anti-retroviral and anti-proliferativeeffects Exposure of the MT-2 T cell line to cell-free HIV led to the formation of syncytia within 4-5 days, and to a parallel decline in cell viability.
The MT-2 human lstoid cell line, which carries the human T cell leukemia virus type I (HTLV-1) genome, was used to assess the cytopathic effects of HIV, and the protective effects of the various nucleosides. […] The formation of syncytia, with resultant cell death, depends upon the expression on the cell-surface of the HIV envelope glycoproteins gp160, gp120, and gp4l, by cells that bear the differentiation antigen CD4 (T4) [Lipson et al., (1986) Nature, 323:725-728].
In the reported studies, the formation of syncytia in the MT-2 cell line (provided by J. Riggs and M. Aschen, State Department of Public Health, Berkelye, CA) was a sensitive and reproducible system to follow both the course of HIV infection and the potential cytotoxic effects of the added nucleosides. HIV (strain LAV) maintained in CEM cell culture was obtained from F. Barre-Sinoussi, J. C. Chermann and L. Montagnier (Institute Pasteur, Paris).
Cell-free virus was prepared by mixing LAV-infected CEM cells with two liters of 2×10^6 cells/ml of uninfected CEM cells at a ratio of 1:20 and incubating at 37 degrees C. for six days at which time, more than 80 percent of the cells expressed the p24 (gag) antigen using mouse monoclonal antibody M33, obtained from F. Vernoese di Marzo and M. Sarngadharan (Litton Bionetics, Rockville, Md.) using an enzyme immunofiltration staining method [Cleveland et al. (1987) J. Clin. Microbiol., 25:416-420]. The cells were centrifuged at 750×g for 10 minutes. The clarified supernatant was then titered by terminal dilution assay in 96 well microtiter plates containing 6×10^4 MT-2 cells per well suspended in a final volume of 200 ul RPMI 1640 medium containing 10 percent fetal bovine serum, 2 mM glutamine and […].
When HIV was added to this microtiter culture system at a multiplicity of infection of 0.1 TCID50 /cell, multinucleated giant cells appeared within 48 hours, and the majority of cells were fused in syncytia structures by day 4. The appearance of giant cells correlated with detectable antigens and RNA of HIV.
For measurement of antiviral activity, different concentrations of the assayed compounds were added to duplicate wells at the time of infection, and the cultures were incubated at 37 degrees C. After 4 and 5 days, the numbers of syncytia per culture were enumerated microscopically.
The results presented herein were confirmed in five separate experiments. Controls containing uninfected and infected cells with and without anti-retroviral nucleosides were included.
The results were expressed in semi-quantitative units that take into account the growth pattern of MT-2, and the ability of the HIV to cause both syncytia formation and cell death. In this unit system, 1 corresponds to 1-3 syncytia per well and no change in cell count compared to control cultures lacking virus; 2 corresponds to 3-10 syncytia per well and up to 20 percent cell death; 3 corresponds to 10-30 syncytia per well and a 20-70 percent drop in cell viability; 4 corresponds to more than 30 syncytia well and at least a 70 percent fall in the viable cell count.

[4] = Deoxycytidine kinase deficient CEM, 3 uM, 4 hours

SMILES | Relative Efficiency (ratio of Vmax/Km) [1] | Nucleotide Formed, Diphosphate [2, 4] [pmols/10^8 cells/4 hrs] | Nucleotide Formed, Monophosphate [2, 4] [pmols/10^8 cells/4 hrs] | Nucleotide Formed, Triphosphate [2, 4] [pmols/10^8 cells/4 hrs] | accumulated phosphates relative to wild type CEM cells ([2]; deoxycytidine kinase deficient CEM variant, same culture conditions) | HIV-induced syncytia formation ([3]; 10 uM) | Relative Efficiency (ratio of Vmax/Km) ([1]; relative efficiency of deamination) | 2',3'-dideoxyadenosine uptake [2] | cytopathic effect of HIV / virus-induced cell killing [3]
Nc1nc(Cl)nc2c1ncn2[C@H]1CC[C@@H](CO)O1 [2-chloro-2',3'-dideoxyadenosine] | 0.04 | 0.8 | 1.7 | 3.4 | about 20% | blocked syncytia formation |  |  | 
Nc1ncnc2c1ncn2[C@H]1CC[C@@H](CO)O1 [2',3'-dideoxyadenosine, reference compound] |  |  |  |  |  |  | 3.52 | 20-30 pmols/10^8 cells | inhibit the cytopathic effect of HIV
